The source of these data is patent publication US10544130B2, “Metallo-beta-lactamase inhibitors” (priority 2015, dated 2020).

Structures are written as SMILES. Counter-ions that a name gives are not always drawn.

The test system of the first data set is Serratia marcescens expressing IMP-1 (CL5741). Type of data set: cell-based. The settings on record: with imipenem 1 μg/ml; 95% inhibition of bacterial growth. As for the experimental part:
Antibiotic Potentiation Activity: Determination of Synergistic Concentration
The bacterial strains tested included the clinical strains Escherichia coli expressing NDM-1 (CLB30005, CLB30016), Serratia marcescens expressing IMP-1 (CL5741), and Klebsiella pneumoniae expressing VIM-1 (IHMA599644). Inhibitor activity was measured in the presence and absence of imipenem in a 384-well microplate.
The clinical strains CLB30016, CL5741 and IHMA599644 were grown on trypticase soy agar containing 5% sheep's blood. The bacteria on agar plates were incubated at 35° C. with humidity overnight. The following day, individual colonies from each clinical strain were picked and resuspended in 5 ml saline to attain an OD600 of 0.14, 0.11, 0.15 and 0.13, for CLB30016, CL5741 and IHMA599644, respectively. These were further diluted 1:100 into 1.1× CAMHB and used to inoculate the test wells as described below.
Imipenem in 10 mM 3-(N-morpholino)propanesulfonic acid (MOPS, pH 7) was stored in single use aliquots at −80° C. […] On the day of the assay, 4 μl of antibiotic was added to 45 ul of bacteria followed by 1 μl of test compound and mixed by pipetting and with an orbital shaker. The concentration of antibiotic used in the assay was 1 μg/ml. Microplates were covered and incubated at 35° C. for 22 hours to 24 hours. At the end of the incubation, absorbance was determined using a spectrophotometer.
`Nc1ncc(-c2ccc(S(=O)(=O)N[C@@H]3CCNC3)c(S(N)(=O)=O)c2-c2nn[nH]n2)s1` [Example 284, (R)-4-(2-aminothiazol-5-yl)-N1-(pyrrolidin-3-yl)-3-(2H-tetrazol-5-yl)benzene-1,2-disulfonamide]: the “Serratia marcescens (IMP-1) MITC95” value was 0.7813 µM.
The same measure, in the same setting: as for `Nc1ccc2cccc(-c3ccc(S(=O)(=O)N[C@@H]4CCNC4)c(S(N)(=O)=O)c3-c3nn[nH]n3)c2n1` [Example 286, (R)-4-(2-aminoquinolin-8-yl)-N1-(pyrrolidin-3-yl)-3-(2H-tetrazol-5-yl)benzene-1,2-disulfonamide], the figure is 0.7813 µM; as for `C[C@H](CN)NS(=O)(=O)c1ccc(-c2ccc(N)nc2)c(-c2nn[nH]n2)c1S(N)(=O)=O` [Example 393, (R)—N^1-(1-aminopropan-2-yl)-4-(6-aminopyridin-3-yl)-3-(2H-tetrazol-5-yl)benzene-1,2-disulfonamide], 1.042 µM.
On the same count and under the same terms, in the case of `C[C@@H](CN)NS(=O)(=O)c1ccc(-c2cc(F)cc3[nH]c(N)nc23)c(-c2nn[nH]n2)c1S(N)(=O)=O` [Example 397, (S)-4-(2-amino-6-fluoro-1H-benzo[d]imidazol-4-yl)-N^1-(1-aminopropan-2-yl)-3-(2H-tetrazol-5-yl)benzene-1,2-disulfonamide] it was 0.7813 µM; in that of `NCCCNS(=O)(=O)c1ccc(-c2cc(F)cc3[nH]c(N)nc23)c(-c2nn[nH]n2)c1S(N)(=O)=O` [Example 402, 4-(2-amino-6-fluoro-1H-benzo[d]imidazol-4-yl)-N^1-(3-aminopropyl)-3-(2H-tetrazol-5-yl)benzene-1,2-disulfonamide], 0.7813 µM; in that of `NC[C@@H](CO)NS(=O)(=O)c1ccc(-c2ccc(N)nc2)c(-c2nn[nH]n2)c1S(N)(=O)=O` [Example 409, (S)-N^1-(1-amino-3-hydroxypropan-2-yl)-4-(6-aminopyridin-3-yl)-3-(2H-tetrazol-5-yl)benzene-1,2-disulfonamide], 1.563 µM.
Still for that read-out and setting: in the case of `Nc1ccc(-c2ccc(S(=O)(=O)N[C@H]3CNC[C@H]3O)c(S(N)(=O)=O)c2-c2nn[nH]n2)cn1` [Example 410, 4-(6-aminopyridin-3-yl)-N^1-((3S,4R)-4-hydroxypyrrolidin-3-yl)-3-(2H-tetrazol-5-yl)benzene-1,2-disulfonamide] it was 0.7813 µM.
`Nc1ccc(-c2ccc(S(=O)(=O)N[C@H]3CN[C@H](CO)C3)c(S(N)(=O)=O)c2-c2nn[nH]n2)cn1` [Example 411, 4-(6-aminopyridin-3-yl)-N^1-((3R,5S)-5-(hydroxymethyl)pyrrolidin-3-yl)-3-(2H-tetrazol-5-yl)benzene-1,2-disulfonamide]: the “Serratia marcescens (IMP-1) MITC95” value was determined as 1.563 µM.
As to `Nc1ccc(-c2ccc(S(=O)(=O)N[C@H]3CNC[C@H]3N)c(S(N)(=O)=O)c2-c2nn[nH]n2)cn1` [Example 413, 4-(6-aminopyridin-3-yl)-N^1-((3S,4R)-4-aminopyrrolidin-3-yl)-3-(2H-tetrazol-5-yl)benzene-1,2-disulfonamide], the “Serratia marcescens (IMP-1) MITC95” value was found to be 1.563 µM.
The same measure, in the same setting: as for `NC[C@@H](N)CNS(=O)(=O)c1ccc(-c2ccc(N)nc2)c(-c2nn[nH]n2)c1S(N)(=O)=O` [Example 416, (R)-4-(6-aminopyridin-3-yl)-N^1-(2,3-diaminopropyl)-3-(2H-tetrazol-5-yl)benzene-1,2-disulfonamide], the figure is 1.563 µM.
On the same count and under the same terms, in the case of `NC[C@@H](O)CNS(=O)(=O)c1ccc(-c2ccc3nccn3c2)c(-c2nn[nH]n2)c1S(N)(=O)=O` [Example 420, (R)-N^1-(3-amino-2-hydroxypropyl)-4-(imidazo[1,2-a]pyridin-6-yl)-3-(2H-tetrazol-5-yl)benzene-1,2-disulfonamide] it was 1.563 µM; in that of `C[C@@H](N)CNS(=O)(=O)c1ccc(-c2ccc3nccn3c2)c(-c2nn[nH]n2)c1S(N)(=O)=O` [Example 423, (R)-N^1-(2-aminopropyl)-4-(imidazo[1,2-a]pyridin-6-yl)-3-(2H-tetrazol-5-yl)benzene-1,2-disulfonamide], 0.7813 µM.
Turning to `NC[C@H](CO)NS(=O)(=O)c1ccc(-c2cccc3nc(N)[nH]c23)c(-c2nn[nH]n2)c1S(N)(=O)=O` [Example 427, (R)-4-(2-amino-1H-benzo[d]imidazol-4-yl)-N^1-(1-amino-3-hydroxypropan-2-yl)-3-(1H-tetrazol-5-yl)benzene-1,2-disulfonamide], the “Serratia marcescens (IMP-1) MITC95” value was 0.7813 µM.
Still for that read-out and setting: as for `Nc1nc(-c2cccc(-c3ccc(S(=O)(=O)N[C@@H]4CCNC4)c(S(N)(=O)=O)c3-c3nn[nH]n3)c2)c[nH]1` [Example 428, (R)-3′-(2-amino-1H-imidazol-4-yl)-N^4-(pyrrolidin-3-yl)-2-(2H-tetrazol-5-yl)-[1,1′-biphenyl]-3,4-disulfonamide], the figure is 0.7813 µM; as for `Nc1nc2c(-c3ccc(S(=O)(=O)N[C@@H]4C[C@H]4N)c(S(N)(=O)=O)c3-c3nnn[nH]3)cccc2[nH]1` [Example 448, 4-(2-amino-1H-benzo[d]imidazol-4-yl)-N^1-((1R,2R)-2-aminocyclopropyl)-3-(1H-tetrazol-5-yl)benzene-1,2-disulfonamide], 1.563 µM; as for `CN(CCN)S(=O)(=O)c1ccc(-c2cccc3[nH]c(N)nc23)c(-c2nn[nH]n2)c1S(N)(=O)=O` [Example 449, 4-(2-amino-1H-benzo[d]imidazol-4-yl)-N^1-(2-aminoethyl)-N^1-methyl-3-(2H-tetrazol-5-yl)benzene-1,2-disulfonamide], 1.563 µM.
As for `NCCNS(=O)(=O)c1ccc(-c2ccnc(CN)c2)c(-c2nn[nH]n2)c1S(N)(=O)=O` [Example 461, N1-(2-Aminoethyl)-4-(2-(aminomethyl)pyridin-4-yl)-3-(2H-tetrazol-5-yl)benzene-1,2-disulfonamide], the “Serratia marcescens (IMP-1) MITC95” value was 3.125 µM.
On the same count and under the same terms, as for `Cc1cc(-c2ccc(S(=O)(=O)NC[C@@H](O)CN)c(S(N)(=O)=O)c2-c2nn[nH]n2)cnc1N` [Example 468, (S)-N1-(3-amino-2-hydroxypropyl)-4-(6-amino-5-methylpyridin-3-yl)-3-(2H-tetrazol-5-yl)benzene-1,2-disulfonamide], the figure is 0.7813 µM; as for `NCCNS(=O)(=O)c1ccc(-c2ccc3sc(CN)nc3c2)c(-c2nn[nH]n2)c1S(N)(=O)=O` [Example 476, N1-(2-aminoethyl)-4-(2-(aminomethyl)benzo[d]thiazol-5-yl)-3-(2H-tetrazol-5-yl)benzene-1,2-disulfonamide], 0.7813 µM.
Same read-out and setting: as for `C[C@H](N)CNS(=O)(=O)c1ccc(-c2ccc(N)nc2)c(-c2nn[nH]n2)c1S(N)(=O)=O` [Example 479, (S)—N1-(2-aminopropyl)-4-(6-aminopyridin-3-yl)-3-(2H-tetrazol-5-yl) benzene-1,2-disulfonamide], the figure is 0.7813 µM.

The next data set has as its system Pseudomonas aeruginosa PAO1 MB9798 (efflux+, IMP-1). The following applies: fold difference between efflux + (MB9798) and efflux − (MB9799) strains; imipenem at 2 μg/mL. The method in brief: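 Isogenic PAO1 pair (efflux+ MB9798, efflux− MB9799, both IMP-1) tested by microbroth MIC with fixed imipenem and/or ceftazidime, usually at CLSI breakpoint, plus fixed class A/C inhibitor against AmpC. MBL inhibitor titrated; concentration restoring susceptibility recorded and fold difference between strains taken as efflux extent.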
On to `C[N+](C)(C)CCNS(=O)(=O)c1ccc(-c2cccc3sc(N)nc23)c(-c2nnn[nH]2)c1S(N)(=O)=O` [Example 391, 2-({[4-(2-amino-1,3-benzothiazol-4-yl)-2-sulfamoyl-3-(1H-tetrazol-5-yl)phenyl]sulfonyl}amino)-N,N,N-trimethylethanaminium trifluoroacetate], for which the Efflux ratio was determined as 1.00.

Staying with this data set, now noted: ratio MITC95 PA 9798/MITC95 PA 9799; imipenem at 2 μg/mL.
Regarding `Nc1ccc(-c2ccc(S(=O)(=O)NC[C@]3(N)CCNC3)c(S(N)(=O)=O)c2-c2nn[nH]n2)cn1` [Example 368, (S)-4-(6-aminopyridin-3-yl)-N1-((3-aminopyrrolidin-3-yl)methyl)-3-(2H-tetrazol-5-yl)benzene-1,2-disulfonamide], the Efflux ratio is on record as 1.00.
Take `Nc1ccc(-c2ccc(S(=O)(=O)NC[C@@]3(N)CCNC3)c(S(N)(=O)=O)c2-c2nn[nH]n2)cn1` [Example 369, (R)-4-(6-aminopyridin-3-yl)-N1-((3-aminopyrrolidin-3-yl)methyl)-3-(2H-tetrazol-5-yl)benzene-1,2-disulfonamide]: the Efflux ratio is reported as 1.00.
The same measure, in the same setting: as for `NC[C@H](N)CNS(=O)(=O)c1ccc(-c2cccc3ccc(N)nc23)c(-c2nn[nH]n2)c1S(N)(=O)=O` [Example 371, (S)-4-(2-aminoquinolin-8-yl)-N1-(2,3-diaminopropyl)-3-(2H-tetrazol-5-yl)benzene-1,2-disulfonamide], the figure is 1.00.
Same read-out and setting: in the case of `NC[C@@H](N)CNS(=O)(=O)c1ccc(-c2cccc3ccc(N)nc23)c(-c2nn[nH]n2)c1S(N)(=O)=O` [Example 376, (R)-4-(2-aminoquinolin-8-yl)-N1-(2,3-diaminopropyl)-3-(2H-tetrazol-5-yl)benzene-1,2-disulfonamide] it was 1.00.
